According to patent US20160095823A1, “METHODS OF USING PROPOFOL DERIVATIVES FOR ANALGESIA” (priority 2005, published 2016):
Values joined by “and” are separate entries in the source; they are usually repeats but may differ in a detail not shown here. Equal entries are not always repeated. Where two headings read alike, the source gives them in different places.

Key:
glycine receptors = biological target: T1, glycine receptors (Rattus norvegicus, UniProt P07727); assay: Inhibitory effects (open channel block) on co-application with saturating 1000 μM glycine; assay type: cell-based; conditions: co-applied with 1000 μM glycine, 3 experiments
T1 construct: expressed in transfected cells; host or cells: HEK 293
T1 sequence (P07727 29-457): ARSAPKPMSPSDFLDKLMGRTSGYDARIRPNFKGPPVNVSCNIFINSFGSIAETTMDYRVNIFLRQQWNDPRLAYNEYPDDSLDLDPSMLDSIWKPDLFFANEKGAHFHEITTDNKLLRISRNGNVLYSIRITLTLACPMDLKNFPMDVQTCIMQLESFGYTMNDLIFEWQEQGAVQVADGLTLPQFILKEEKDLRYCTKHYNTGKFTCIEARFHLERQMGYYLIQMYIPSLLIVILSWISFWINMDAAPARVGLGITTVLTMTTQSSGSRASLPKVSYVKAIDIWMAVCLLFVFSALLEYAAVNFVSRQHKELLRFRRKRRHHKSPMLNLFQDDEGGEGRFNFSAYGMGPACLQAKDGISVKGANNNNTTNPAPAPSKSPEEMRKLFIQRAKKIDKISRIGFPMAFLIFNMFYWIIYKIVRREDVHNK
Experimental: (§1) Standard whole-cell experiments (Hamill et al., (1981) Pflügers Arch., 391, 85-100.) were performed at −30 mV membrane potential. A tight electrical seal of several GΩ formed between the cell membrane and a patch-clamp electrode allows inward currents due to agonist-induced channel activation to resolve in the pA range. Electrical resistance of the pipettes was around 5 MΩ, corresponding to a total access resistance in the whole-cell configuration of about 10 MΩ. An ultra-fast liquid filament switch technique (Franke et al., (1987) Neurosci. Lett., 77, 199-204) was used for the application of the agonist in pulses of 2 s duration. The agonist and/or the drug under investigation were applied to the cells via a smooth liquid filament achieved with a single outflow (glass tubing 0.15 mm inner diameter) connected to a piezo crystal. The cells were placed at the interface between this filament and the continuously flowing background solution. When a voltage pulse was applied to the piezo, the tube was moved up and down onto or away from the cell under investigation. […] The contents of these reservoirs were mixed at a junction immediately before entering the superfusion chamber.
A new cell was used for each drug and each protocol, at least three different experiments were performed for each setting. […]

[1] = biological target: T2, α1 homomeric glycine receptors (Rattus norvegicus, UniProt P07727); assay: Co-activation of the current response to 10 μM glycine, whole-cell patch clamp, transfected HEK 293 cells; assay type: cell-based; conditions: for nH (Hill coefficient), coactivating response, α1 homomer: co-applied with 10 μM glycine, Hill fit, ± s.d.
T2 construct: expressed in transfected cells; host or cells: HEK 293, transient electroporation, cDNA in pCIS2, GFP cDNA co-transfected as marker
T2 sequence (P07727 29-457): T1 sequence (P07727 29-457)
Experimental: (§2) Reduced sensitivity to 1000 μM picrotoxin in α1β heteromeric receptors was used as an assay of the efficacy of β subunit expression. Cells were cultured in Dulbecco's modified Eagle's medium (DMEM, Biochrom, Berlin, Germany), supplemented with 10% fetal calf serum (FCS, Biochrom, Berlin, Germany), 100 U ml^−1 penicillin and 100 μg ml^−1 streptomycin at 37° C. in a 5% CO2/air incubator. For transfection, cells were suspended in a buffer containing 50 mM K2HPO4 and 20 mM K-acetate, pH 7.35. […] To visualize transfected cells, they were co-transfected with cDNA of green fluorescent protein (GFP 10 μg ml^−1). For transfection, we used an electroporation device by EquiBio (Kent, UK). Transfected cells were replated on glass-coverslips and incubated 15-24 h before recording.
(§3) The phenol derivatives under investigation were prepared as 1 M stock solution in ethanol, light-protected and stored in glass vessels at −20° C. Concentrations were calculated from the amount injected into the glass vials. Drug-containing vials were vigorously vortexed for 60 min.
(§4) Patch electrodes contained [mM] KCl 140, MgCl2 2, EGTA 11, HEPES 10, glucose 10; the bath solution contained [mM] NaCl 162, KCl 5.3, NaHPO4 0.6, KH2PO4 0.22, HEPES 15, glucose 5.6.
as §1
(§5) A new cell was used for each drug and each protocol, at least three different experiments were performed for each setting. The amount of the diluent ethanol corresponding to the highest drug concentration used was 34 000 μM.
(§6) For data acquisition and further analysis the inventors used the Axopatch 200B amplifier in combination with pClamp6 software (Axon Instruments, Union City, Calif., USA). Currents were filtered at 2 kHz. Fitting procedures were performed using a non-linear least-squares Marquardt-Levenberg algorithm. Details are provided in the appropriate figure legends or in the results section.
(§7) Activated or co-activated currents were normalized to their own maximum response. […] In these cases, the maximum response was the response at the highest concentration of the test compound for which a reliable response could be recorded.
(§8) Only results obtained with α1β receptors were enrolled in the statistical tests. […] Statistical analysis was performed in order to reveal differences in the maximum effect on the one hand and in the concentrations required to achieve half-maximum effect (EC50) on the other between halogenated and non-halogenated analogues, between compounds with one vs. two methyl groups, or between compounds with ortho- or meso-position of the methyl groups with respect to the phenolic hydroxyl group, respectively. Curve fitting and parameter estimation of the Hill curves were performed using the program “PROC NLMIXED” of SAS Release 8.02.

[2] = biological target: T3, α1β heteromeric glycine receptors (Rattus norvegicus, UniProt P07727); assay: as above; assay type: cell-based; conditions: for nH (Hill coefficient), coactivating response, α1β heteromer: co-applied with 10 μM glycine, Hill fit, ± s.d.; for half-maximum concentration for glycine receptor co-activation, fold lower than for half-maximum blockade of sodium channels: selectivity versus reported sodium channel block
T3 construct: expressed in transfected cells; host or cells: HEK 293, transient electroporation, α:β cDNA 1:10, pCIS2 vector
Experimental: as §2, §3, §4, §1, §5, §6, §7, §8

[3] = tested on: voltage-operated sodium channels; conditions: cited from earlier work
[4] = biological target: T2, α1 homomeric glycine receptors; assay: Direct activation of Cl- inward currents (agonist applied alone), whole-cell patch clamp, HEK 293; assay type: cell-based; conditions: for directly activated current as % of the maximum glycine (1000 μM) response: 3000 μM compound, without glycine, α1, n=3; for EC50: read-out: half-maximum concentration (EC50) for direct activation
Experimental: as §2, §1, §5, §6, §7

[5] = biological target: T3, α1β heteromeric glycine receptors; assay: as above; assay type: cell-based; conditions: for directly activated current as % of the maximum glycine (1000 μM) response: 3000 μM compound, without glycine, α1β, n=3; for EC50: read-out: half-maximum concentration (EC50) for direct activation
Experimental: as §2, §1, §5, §6, §7

[6] = biological target: T4, α-subunits of glycine receptors from the rat coexpressed with human β subunits (Rattus norvegicus, UniProt P07727); assay: Example 2: co-activation of the current response to 10 μM glycine, whole-cell mode, HEK293 cells; assay type: cell-based; conditions: for EC50 values in the presence of glycine (co-activation): Example 2; for concentrations at which the co-activating effect is overridden by inhibitory effects: co-applied with 10 μM glycine; for enhancement of glycine receptor function / EC50 for co-activation, fold lower concentrations than propofol: glycine receptors heterologously expressed in HEK293 cells
T4 construct: expressed in transfected cells; host or cells: HEK293
Experimental: (§9) Small cells were studied in the whole-cell mode using an ultra-fast application device.
The results presented in FIG. 10 were corroborated by repeating the tests carried out to provide the data shown in FIG. 10 to provide the data shown in FIG. 11. […] Note from FIGS. 10 and 11 that the co-activating effect is observed in the concentration range between […]. The co-activating effect is overridden by inhibitory effects at higher concentrations (≧1000 μM). […] Small cells were studied in the whole-cell mode using an ultra-fast application device.

[7] = biological target: T4, α-subunits of glycine receptors from the rat coexpressed with human β subunits; assay: Example 2: direct activation in the absence of glycine, whole-cell mode, HEK293 cells; assay type: cell-based; conditions: for EC50 values in the absence of the natural transmitter glycine: Example 2; for direct activating effect, fold higher concentrations than the co-activating effect: absence of glycine versus 10 μM glycine
Text: as §9
The solid line is a Hill fit to the data with the indicated parameters. Note that the direct activating effect is observed at 1000-fold higher concentrations than the co-activating effect.

[8] = biological target: T2, α1 homomeric glycine receptors; assay: Picrotoxin block of the 1000 μM glycine current (check of β subunit expression); assay type: cell-based; conditions: picrotoxin 1000 μM co-applied with 1000 μM glycine
Experimental: as §2
(§10) A total of 94 cells were included in the study.

α1β glycine receptors = biological target: T5, α1β glycine receptors (Rattus norvegicus, UniProt P07727); assay: as above; assay type: cell-based; conditions: picrotoxin 1000 μM co-applied with 1000 μM glycine
T5 construct: expressed in transfected cells; host or cells: HEK 293, transient electroporation, α:β cDNA 1:10, pCIS2 vector
Experimental: as §2, §10

[9] = read-out: EC50 (μM), normalised coactivating response, α1 homomer
[10] = read-out: EC50 (μM), normalised coactivating response, α1β heteromer

T4 sequence (P48167 23-497 partner, one chain of several): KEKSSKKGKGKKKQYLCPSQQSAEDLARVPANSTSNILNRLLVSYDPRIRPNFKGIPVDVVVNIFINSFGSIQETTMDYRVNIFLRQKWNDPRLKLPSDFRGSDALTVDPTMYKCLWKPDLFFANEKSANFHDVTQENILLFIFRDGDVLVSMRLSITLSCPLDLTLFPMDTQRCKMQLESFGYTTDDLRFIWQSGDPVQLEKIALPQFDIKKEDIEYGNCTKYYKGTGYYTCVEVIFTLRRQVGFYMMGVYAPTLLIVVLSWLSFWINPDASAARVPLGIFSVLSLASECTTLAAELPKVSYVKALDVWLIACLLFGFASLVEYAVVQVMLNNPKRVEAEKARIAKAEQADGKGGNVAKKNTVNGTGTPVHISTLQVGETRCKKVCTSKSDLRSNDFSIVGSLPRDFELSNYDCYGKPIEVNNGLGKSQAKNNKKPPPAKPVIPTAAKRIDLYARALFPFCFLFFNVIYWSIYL
T3 sequence (P20781 23-496 partner, one chain of several): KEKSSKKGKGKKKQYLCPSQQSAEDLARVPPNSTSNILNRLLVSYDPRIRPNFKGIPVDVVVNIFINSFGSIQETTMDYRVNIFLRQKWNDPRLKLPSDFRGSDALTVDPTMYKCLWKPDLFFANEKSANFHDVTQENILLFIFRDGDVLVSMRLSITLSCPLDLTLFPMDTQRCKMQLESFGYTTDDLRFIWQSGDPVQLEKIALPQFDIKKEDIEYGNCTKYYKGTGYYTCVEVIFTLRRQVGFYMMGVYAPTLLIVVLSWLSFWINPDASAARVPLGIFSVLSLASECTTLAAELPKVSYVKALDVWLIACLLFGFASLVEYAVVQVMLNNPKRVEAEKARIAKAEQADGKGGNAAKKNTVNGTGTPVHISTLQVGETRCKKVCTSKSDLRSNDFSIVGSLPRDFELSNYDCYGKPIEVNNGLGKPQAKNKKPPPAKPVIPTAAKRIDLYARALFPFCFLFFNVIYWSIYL
T5 sequence (P20781 23-496 partner, one chain of several): as above

## Cc1cc(O)cc(C)c1Cl [3,5 dimethyl-4-chlorophenol]
Glycine receptors
  concentration producing a reduction in peak current amplitude with response rebound: > 300 µM
[1]
  nH (Hill coefficient), coactivating response, α1 homomer: 1.4 ± 2.9
[1]; [9]
  EC50: 13 ± 4 µM
[2]
  nH (Hill coefficient), coactivating response, α1β heteromer: 1.3 ± 0.1
  half-maximum concentration for glycine receptor co-activation, fold lower than for half-maximum blockade of sodium channels: about 10 fold
[2]; [10]
  EC50: 11 ± 2 µM

## Cc1cc(O)ccc1Cl [3 methyl-4-chlorophenol]
Glycine receptors
  concentration producing a reduction in peak current amplitude with response rebound: > 600 µM
[1]
  EC50: 8 ± 5 µM
  nH (Hill coefficient), coactivating response, α1 homomer: 1.1 ± 0.4
[2]
  EC50: 4 µM
  nH (Hill coefficient), coactivating response, α1β heteromer: 1.2 ± 0.3
  half-maximum concentration for glycine receptor co-activation, fold lower than for half-maximum blockade of sodium channels: ~100 fold
[3]; resting state, read-out: half-maximum block of sodium channels
  IC50: 400 µM

## Cc1ccccc1O [2 methylphenol]
[1]
  EC50: 70 ± 29 µM
  nH (Hill coefficient), coactivating response, α1 homomer: 0.7 ± 0.1
[2]
  EC50: 448 ± 89 µM
  nH (Hill coefficient), coactivating response, α1β heteromer: 1.2 ± 0.2

## Cc1cccc(C)c1O [2,6 dimethylphenol]
[4]
  directly activated current as % of the maximum glycine (1000 μM) response: 32±6%
  EC50: 1410 ± 101 µM
[5]
  directly activated current as % of the maximum glycine (1000 μM) response: 33±10%
  EC50: 1550 ± 164 µM
[1]
  nH (Hill coefficient), coactivating response, α1 homomer: 1.5 ± 0.4
[1]; [9]
  EC50: 226 ± 104 µM
[2]
  nH (Hill coefficient), coactivating response, α1β heteromer: 1.2 ± 0.1
[2]; [10]
  EC50: 370 µM and 373 µM
[3]; membrane potential close to the physiological resting potential, read-out: half-maximum blockade of voltage-operated neuronal sodium channels
  IC50: 187 µM

## Cc1cccc(O)c1 [3 methylphenol]
[1]
  nH (Hill coefficient), coactivating response, α1 homomer: 0.9 ± 0.3
[1]; [9]
  EC50: 59 ± 19 µM
[2]
  nH (Hill coefficient), coactivating response, α1β heteromer: 1.0 ± 0.1
[2]; [10]
  EC50: 222 ± 45 µM

## CC(C)c1cc(Br)cc(C(C)C)c1O [4-bromopropofol, 4-bromo-2,6 di-isopropylphenol]
[6]
  EC50 values in the presence of glycine (co-activation): single-digit nanomolar range
  concentrations at which the co-activating effect is overridden by inhibitory effects: > 1000 µM
  enhancement of glycine receptor function / EC50 for co-activation, fold lower concentrations than propofol: 1000 fold
[7]
  EC50 values in the absence of the natural transmitter glycine: single-digit micromolar range
  direct activating effect, fold higher concentrations than the co-activating effect: 1000 fold

## NCC(=O)O [glycine]
[4]; α1 receptors, n=24
  current response evoked by 10 μM glycine, % of the response to 1000 μM glycine: 46±5%
[5]; α1β receptors, n=34
  current response evoked by 10 μM glycine, % of the response to 1000 μM glycine: 21±7%

## picrotoxin
[8]
  block of receptors by picrotoxin: 55±0.05%
α1β glycine receptors
  block of receptors by picrotoxin: 19±0.05%

## CC(C)c1cc(I)cc(C(C)C)c1O [4-iodopropofol, 4-iodo-2,6 di-isopropylphenol]
[6]
  EC50 values in the presence of glycine (co-activation): single-digit nanomolar range
  concentrations at which the co-activating effect is overridden by inhibitory effects: > 1000 µM
  enhancement of glycine receptor function / EC50 for co-activation, fold lower concentrations than propofol: 1000 fold
[7]
  EC50 values in the absence of the natural transmitter glycine: single-digit micromolar range
  direct activating effect, fold higher concentrations than the co-activating effect: 1000 fold

## Cc1cc(C)cc(O)c1 [3,5 dimethylphenol]
[4]
  directly activated current as % of the maximum glycine (1000 μM) response: 30±12%
  EC50: 1470 ± 208 µM
[5]
  directly activated current as % of the maximum glycine (1000 μM) response: 38±5%
  EC50: 1470 ± 83 µM
[1]
  nH (Hill coefficient), coactivating response, α1 homomer: 1.7 ± 0.9
[1]; [9]
  EC50: 254 ± 139 µM
[2]
  nH (Hill coefficient), coactivating response, α1β heteromer: 1.3 ± 0.2
[2]; [10]
  EC50: 308 ± 46 µM
